Test results as given in US20240199587A1, “HETEROCYCLIC COMPOUNDS” (Hoffmann-La Roche Inc., priority 2021, published 2024).

target: T1, MAGL (Homo sapiens, UniProt Q99685); experiment: 2-AG assay (MAGL inhibitory activity, hydrolysis of 2-arachidonoylglycerol to arachidonic acid followed by mass spectrometry); assay type: biochemical; settings: 8 μM 2-arachidonoylglycerol, 15 min pre-incubation, 30 min incubation at RT, RapidFire MS readout
T1 sequence (Q99685 1-303): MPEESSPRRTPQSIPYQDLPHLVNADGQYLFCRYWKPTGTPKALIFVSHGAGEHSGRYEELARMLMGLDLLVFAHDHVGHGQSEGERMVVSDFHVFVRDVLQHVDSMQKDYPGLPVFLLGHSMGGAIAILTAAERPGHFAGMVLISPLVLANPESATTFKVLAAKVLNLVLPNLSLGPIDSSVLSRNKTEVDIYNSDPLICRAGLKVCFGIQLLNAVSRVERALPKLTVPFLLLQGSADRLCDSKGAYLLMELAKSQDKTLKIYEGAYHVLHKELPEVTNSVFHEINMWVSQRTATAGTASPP
Procedure, shortened: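 Arachidonic acid released from 8 μM 2-arachidonoylglycerol was quantified by online SPE triple-quadrupole MS (negative ESI, 303.1→259.1), normalised to d8-arachidonic acid internal standard. Reaction ran 30 min at RT after 15 min RT compound pre-incubation with […] MAGL in TRIS/EDTA/Tween-20 buffer, 2.5% DMSO.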

IC50 [µM] | Compound
0.0327 | O=C(N1CC(Oc2ccc(C(F)(F)F)nc2)C1)N1CC2(CC(n3cnc(C4CC4)n3)C2)C1 [Example 270, (6-(3-cyclopropyl-1H-1,2,4-triazol-1-yl)-2-azaspiro[3.3]heptan-2-yl)(3-((6-(trifluoromethyl)pyridin-3-yl)oxy)azetidin-1-yl)methanone]
0.0338 | O=C(N1CCC(CNS(=O)(=O)c2ccc(Cl)cc2)CC1)N1CC2(CC(n3cnc(C4CC4)n3)C2)C1 [Example 271]
0.0343 | O=C(N1CC2(CC(n3cnc(C4CC4)n3)C2)C1)N1CC2(C1)CN(S(=O)(=O)CCc1ccc(F)cc1)C2 [Example 272, [6-(3-cyclopropyl-1,2,4-triazol-1-yl)-2-azaspiro[3.3]heptan-2-yl]-[2-[2-(4-fluorophenyl)ethylsulfonyl]-2,6-diazaspiro[3.3]heptan-6-yl]methanone]
0.0344 | O=C(N1CC2(CC(n3cnc(C4CC4)n3)C2)C1)N1CC2(C1)CN(S(=O)(=O)c1ccc(F)c(F)c1)C2 [Example 273, [6-(3-cyclopropyl-1,2,4-triazol-1-yl)-2-azaspiro[3.3]heptan-2-yl]-[2-(3,4-difluorophenyl)sulfonyl-2,6-diazaspiro[3.3]heptan-6-yl]methanone]
0.0348 | O=C(N1CC(Oc2ccnc(C3CC3)n2)C1)N1CC2(CC(n3cnc(C4CC4)n3)C2)C1 [Example 274, [3-(2-cyclopropylpyrimidin-4-yl)oxyazetidin-1-yl]-[6-(3-cyclopropyl-1,2,4-triazol-1-yl)-2-azaspiro[3.3]heptan-2-yl]methanone]
0.0353 | O=C(c1ccc(F)cc1C(F)(F)F)N1CC2(C1)CN(C(=O)N1CC3(CC(n4cnc(C5CC5)n4)C3)C1)C2 [Example 275, [2-[6-(3-cyclopropyl-1,2,4-triazol-1-yl)-2-azaspiro[3.3]heptane-2-carbonyl]-2,6-diazaspiro[3.3]heptan-6-yl]-[4-fluoro-2-(trifluoromethyl)phenyl] methanone]
0.0357 | O=C(N1CC(CNS(=O)(=O)c2ccc(C(F)(F)F)cc2)C1)N1CC2(CC(n3cnc(C4CC4)n3)C2)C1 [Example 276, N-[[1-[6-(3-cyclopropyl-1,2,4-triazol-1-yl)-2-azaspiro[3.3]heptane-2-carbonyl]azetidin-3-yl]methyl]-4-(trifluoromethyl)benzene-sulfonamide]
0.0372 | O=C(N1CC2(CC(NC(=O)C3(C(F)(F)F)CC3)C2)C1)N1CC2(CC(n3cnc(C4CC4)n3)C2)C1 [Example 277, N-[2-[6-(3-cyclopropyl-1,2,4-triazol-1-yl)-2-azaspiro[3.3]heptane-2-carbonyl]-2-azaspiro[3.3]heptan-6-yl]-1-(trifluoromethyl) cyclo-propanecarboxamide]
0.0373 | O=C(N1CC2(CC(n3cnc(C4CC4)n3)C2)C1)N1CC2(C1)CN(S(=O)(=O)c1cnccc1Cl)C2 [Example 278, [2-[(4-chloro-3-pyridyl)sulfonyl]-2,6-diazaspiro[3.3]heptan-6-yl]-[6-(3-cyclopropyl-1,2,4-triazol-1-yl)-2-azaspiro[3.3]heptan-2-yl]methanone]
0.038 | CC(C)(C(=O)O)c1cccc(OC2CN(C(=O)N3CC4(CC(n5cnc(C6CC6)n5)C4)C3)C2)c1 [Example 279, 2-[3-[1-[6-(3-cyclopropyl-1,2,4-triazol-1-yl)-2-azaspiro[3.3]heptane-2-carbonyl]azetidin-3-yl]oxyphenyl]-2-methyl-propanoic acid]
0.0394 | O=C(N1CC(Oc2ccc(C3CC3)nn2)C1)N1CC2(CC(n3cnc(C4CC4)n3)C2)C1 [Example 280, [3-(6-cyclopropylpyridazin-3-yl)oxyazetidin-1-yl]-[6-(3-cyclopropyl-1,2,4-triazol-1-yl)-2-azaspiro[3.3]heptan-2-yl]methanone]
0.0413 | Cc1noc(C)c1S(=O)(=O)N1CC2(CN(C(=O)N3CC4(CC(n5cnc(C6CC6)n5)C4)C3)C2)C1 [Example 281, [6-(3-cyclopropyl-1,2,4-triazol-1-yl)-2-azaspiro[3.3]heptan-2-yl]-[2-(3,5-dimethylisoxazol-4-yl)sulfonyl-2,6-diazaspiro[3.3]heptan-6-yl]methanone]
0.0446 | COc1ccc(S(=O)(=O)N2CC3(CN(C(=O)N4CC5(CC(n6cnc(C7CC7)n6)C5)C4)C3)C2)cc1 [Example 282, [6-(3-cyclopropyl-1,2,4-triazol-1-yl)-2-azaspiro[3.3]heptan-2-yl]-[2-(4-methoxyphenyl)sulfonyl-2,6-diazaspiro[3.3]heptan-6-yl]methanone]
0.0483 | O=C(N1CC(Oc2ccnc(C(F)(F)F)n2)C1)N1CC2(CC(n3cnc(C4CC4)n3)C2)C1 [Example 283, [6-(3-cyclopropyl-1,2,4-triazol-1-yl)-2-azaspiro[3.3]heptan-2-yl]-[3-[2-(trifluoromethyl)pyrimidin-4-yl]oxyazetidin-1-yl]methanone]
0.0499 | O=C(N1CC2(CC(n3cnc(C4CC4)n3)C2)C1)N1CC2(C1)CN(S(=O)(=O)N1CCCC1)C2 [Example 284, [6-(3-cyclopropyl-1,2,4-triazol-1-yl)-2-azaspiro[3.3]heptan-2-yl]-(2-pyrrolidin-1-ylsulfonyl-2,6-diazaspiro[3.3]heptan-6-yl)methanone]
0.0543 | O=C(N1CC(Oc2cc(C(F)(F)F)ncn2)C1)N1CC2(CC(n3cnc(C4CC4)n3)C2)C1 [Example 285, [6-(3-cyclopropyl-1,2,4-triazol-1-yl)-2-azaspiro[3.3]heptan-2-yl]-[3-[6-(trifluoromethyl)pyrimidin-4-yl]oxyazetidin-1-yl]methanone]
0.0586 | O=C(N1CC2(CC(n3cnc(C4CC4)n3)C2)C1)N1CC2(C1)CN(S(=O)(=O)c1cccc(Cl)n1)C2 [Example 286, [2-[(6-chloro-2-pyridyl)sulfonyl]-2,6-diazaspiro[3.3]heptan-6-yl]-[6-(3-cyclopropyl-1,2,4-triazol-1-yl)-2-azaspiro[3.3]heptan-2-yl]methanone]
0.0594 | N#Cc1cccc(S(=O)(=O)N2CC3(CN(C(=O)N4CC5(CC(n6cnc(C7CC7)n6)C5)C4)C3)C2)c1 [Example 287, 3-[[6-[6-(3-cyclopropyl-1,2,4-triazol-1-yl)-2-azaspiro[3.3]heptane-2-carbonyl]-2,6-diazaspiro[3.3]heptan-2-yl]sulfonyl]benzonitrile]
0.062 | CC1(S(=O)(=O)N2CC3(CN(C(=O)N4CC5(CC(n6cnc(C7CC7)n6)C5)C4)C3)C2)CC1 [Example 288, [6-(3-cyclopropyl-1,2,4-triazol-1-yl)-2-azaspiro[3.3]heptan-2-yl]-[2-(1-methylcyclopropyl)sulfonyl-2,6-diazaspiro[3.3]heptan-6-yl]methanone]
0.0621 | O=C(N1CC(c2nnc(-c3ccc(F)cc3F)[nH]2)C1)N1CC2(CC(n3cnc(C4CC4)n3)C2)C1 [Example 289, [6-(3-cyclopropyl-1,2,4-triazol-1-yl)-2-azaspiro[3.3]heptan-2-yl]-[3-[5-(2,4-difluorophenyl)-4H-1,2,4-triazol-3-yl]azetidin-1-yl]methanone]
0.0707 | COc1cc(F)ccc1S(=O)(=O)N1CC2(CN(C(=O)N3CC4(CC(n5cnc(C6CC6)n5)C4)C3)C2)C1 [Example 290, [6-(3-cyclopropyl-1,2,4-triazol-1-yl)-2-azaspiro[3.3]heptan-2-yl]-[2-(4-fluoro-2-methoxy-phenyl)sulfonyl-2,6-diazaspiro[3.3]heptan-6-yl]methanone]
0.0771 | O=C(c1ccc(F)cc1Cl)N1CC2(C1)CN(C(=O)N1CC3(CC(n4cnc(C5CC5)n4)C3)C1)C2 [Example 292, (2-chloro-4-fluoro-phenyl)-[2-[6-(3-cyclopropyl-1,2,4-triazol-1-yl)-2-azaspiro[3.3]heptane-2-carbonyl]-2,6-diazaspiro[3.3]heptan-6-yl]methanone]
0.078 | NS(=O)(=O)c1ccc(C2CN(C(=O)N3CC4(CC(n5cnc(C6CC6)n5)C4)C3)C2)cc1 [Example 293, 4-[1-[6-(3-cyclopropyl-1,2,4-triazol-1-yl)-2-azaspiro[3.3]heptane-2-carbonyl]azetidin-3-yl]benzenesulfonamide]
0.0816 | NC(=O)c1ccc(F)c(S(=O)(=O)N2CC3(CN(C(=O)N4CC5(CC(n6cnc(C7CC7)n6)C5)C4)C3)C2)c1 [Example 294]
0.089 | CC(=O)Nc1ccc(S(=O)(=O)N2CC3(CN(C(=O)N4CC5(CC(n6cnc(C7CC7)n6)C5)C4)C3)C2)cc1 [Example 295, N-[4-[[6-[6-(3-cyclopropyl-1,2,4-triazol-1-yl)-2-azaspiro[3.3]heptane-2-carbonyl]-2,6-diazaspiro[3.3]heptan-2-yl]sulfonyl]phenyl]acetamide]
0.0915 | O=C(N1CC2(CC(n3cnc(C4CC4)n3)C2)C1)N1CC2(C1)CN(S(=O)(=O)CC1CC1)C2 [Example 296, [2-(cyclopropylmethylsulfonyl)-2,6-diazaspiro[3.3]heptan-6-yl]-[6-(3-cyclopropyl-1,2,4-triazol-1-yl)-2-azaspiro[3.3]heptan-2-yl]methanone]
0.0944 | O=C(N1CC2(CC(n3cnc(C4CC4)n3)C2)C1)N1CC2(C1)CN(S(=O)(=O)c1cccnc1C(F)(F)F)C2 [Example 297, [6-(3-cyclopropyl-1,2,4-triazol-1-yl)-2-azaspiro[3.3]heptan-2-yl]-[2-[[2-(trifluoromethyl)-3-pyridyl]sulfonyl]-2,6-diazaspiro[3.3]heptan-6-yl]methanone]
0.0955 | NC(=O)c1ccc(S(=O)(=O)N2CC3(CN(C(=O)N4CC5(CC(n6cnc(C7CC7)n6)C5)C4)C3)C2)cc1 [Example 298, 4-[[6-[6-(3-cyclopropyl-1,2,4-triazol-1-yl)-2-azaspiro[3.3]heptane-2-carbonyl]-2,6-diazaspiro[3.3]heptan-2-yl]sulfonyl]benzamide]
